US20030170299A1, “Therapeutic methods for acute myeloid leukemia” (priority 2002, published 2003)
Where two headings read alike, the source gives them in different places.

How the values were obtained:
KG-1 cells [1] = assay: Cellular uptake of calcein liposomes by flow cytometry, KG-1; assay type: cell-based, human; settings: 6S-5MeTHF at 10 μM
Description: Folate-coated liposomes with the composition DSPC/Chol/folate-PEG-DSPE (60:40:0.1, m/m) and entrapping calcein, a membrane impermeable fluorescent dye, (f-L-calcein) were prepared, using a modification of the procedure described above. Non-targeted calcein-containing liposomes (L-calcein), with essentially the same composition, minus folate-PEG-DSPE, were used as a control. FR (+) cell lines, human KG-1, CHO-FR-β, and murine L1210JF, and the FR (−) cell lines KG-1a, CHO-K1 and L1210 were used. FR-β expression on the cells was determined by flow cytometry using a receptor-specific antibody. For liposome binding studies, the cells were treated in triplicate with f-L-calcein (folate-conjugated liposomes containing calcein) or free L-calcein at 20 μM in media. The cells were then washed 3× with cold PBS and examined by […] (FIG. 3).
Data on cellular uptake of calcein-containing liposomes in the FR (+) KG-1, L1210JF and CHO-FR-β cells, and FR (−) KG-1a, L1210 and CHO-K1 controls are summarized in Table 2 below.
In order to examine the potential effect of physiological folate on FR-mediated drug delivery in FR-β (+) cells, f-L-calcein uptake was measured in KG-1 cells in the presence of 0-10 μM 6S-5-methyltetrahydrofolate (6S-5MeTHF) using the same flow cytometry method as described above.

FR-β = settings: cited from earlier work
FR-β expression [2] = assay: ATRA induction of FR-β in AML blasts from patient marrow (Western blot); assay type: cell-based, human; settings: myeloid leukemia cells from patient bone marrow, in vitro, ATRA 1 μmol/L
Description: FIG. 5. ATRA induction of FR-β in AML blasts from patient marrow. Cells (1×10^6) were cultured and treated with or without ATRA (1 μmol/L) for 6 hours (A and B), 24 hours (C), or 5 days (D). The samples were obtained from separate patients with FAB-M2 (A and C) or FAB-M4 (B and D) type AML. Cell lysates were then examined by Western blot and the use of rabbit anti-FR-β- and AP conjugated antibodies.
In one study, FR-β expression was elevated up to 20-fold by ATRA in KG-1 myeloid leukemia cells in a dose-dependent and reversible manner in the absence of terminal differentiation or cell growth inhibition (FIG. 4). The retinoid-induced increase in FR-β expression occurred in these cells without causing terminal differentiation or growth inhibition of the cells. In addition, ATRA increased FR-β expression in vitro in myeloid leukemia cells from patient bone marrow (FIG. 5). ATRA-induction of FR-β occurred even though primary AML blast cells (M2 and M4 type AMLs) are known to be refractory to ATRA differentiation therapy. […] In addition, FR-β inducers can modulate FR-β expression in AML cells refractory to retinoid differentiation therapy.

[3] = tested on: acute promyelocytic leukemia (PML); settings: PML patients; cited from earlier work
FR-β expression [4] = tested on: FR-β expression
KG-1 cells [5] = assay: MTT cytotoxicity, KG-1; assay type: cell-based, human
Description: (§1) FR-targeted liposomal doxorubicin (f-L-DOX) was evaluated for in vitro cytotoxicity in both FR (+) and FR (−) leukemia cells using a standard cell survival assay (MTT assay). FR-targeted liposomal-doxorubicin (f-L-DOX) was prepared as described above. F-L-DOX in vitro cytotoxicity was evaluated in two FR (+) cell lines [KG-1, an FR-β (+) human AML cell line, and L1210JF, an FR (+) subline of L1210 murine acute lymphocytic leukemia cell line] and two FR (−) cell lines [KG-1a, an FR-β (−) subline of KG-1, and FR (−) L1210 cells] using the survival assay. The cells were treated in quadruplicate with serial dilutions of f-L-DOX, non-targeted control L-DOX, or free DOX. Cell viability was determined and IC50 values were calculated. For KG-1 and KG-1a cells, the MTT assay was repeated with cells cultured in media containing 1 μM ATRA for 5-days.

KG-1a cells = assay: MTT cytotoxicity, KG-1a; assay type: cell-based, human
Description: as §1

L1210JF cells = assay: MTT cytotoxicity, L1210JF; assay type: cell-based, murine; settings: no ATRA
Description: as §1

L1210 cells = assay: MTT cytotoxicity, L1210; assay type: cell-based, murine
Description: as §1

L1210JF ascites tumor = assay: Survival of DBA/2 mice carrying L1210JF ascites tumor; assay type: in vivo, DBA/2J mice; settings: i.p. on days 1, 5, 9; free DOX 3 mg/kg, L-DOX and f-L-DOX 5 mg/kg DOX
Description: The antileukemic therapeutic efficacy of f-L-DOX was evaluated in two FR (+) murine leukemia ascites tumor models. The first model consisted of DBA/2J mice with ascites tumors derived from intraperitoneally engrafted FR (+) murine lymphocytic leukemia L1210JF cells. Male mice (18-22 g, from Charles River, Wilmington, Mass.) were placed on a folate-deficient diet (AIN-93G from Dyets, Inc., PA) and for at least one week prior to leukemia cell inoculation. The mice, in groups of 8 animals, were injected intraperitoneally with 1×10^6 L1210JF cells on day 0. The animals then received three intraperitoneal injections (in 50 μL) of various drug formulations on days 1, 5, and 9. […] In the saline-treated group, no visible ascitic fluid began to develop until after one week.

CMLs = settings: in vivo; cited from earlier work
FR-β (+) AML cells = assay: [3H] folic acid binding to FR-β (+) AML cells; design: species or system human

Description for KG-1 ascites tumor: Effect of f-L-DOX treatment on the survival of SCID mice carrying KG-1 ascites tumor. SCID mice inoculated intraperitoneally with KG-1 cells that were treated with saline, free DOX, L-DOX or f-L-DOX, with or without co-injection of ATRA. Animal survival was recorded starting from the day of tumor cell inoculation.
The therapeutic efficacy of f-L-DOX in a human leukemia murine ascites xenograft model was further tested. Female CB.17 SCID (scid/scid, 18-22 g) mice were inoculated intraperitoneally with human AML KG-1 cells, which express FR-β, to generate ascites tumors. KG-1 cells (1×10^6) grown in folate-deficient RPMI1640 media supplemented with 20% FBS were injected into the mice intraperitoneally on day 0. […] Peritoneal exudate cells were collected by peritoneal lavage with 5 mL Hanks' balanced salt solution (HBSS), pelleted and resuspended in RPMI1640 media. […] The tumor cells were inoculated into 8 groups of 8 mice. Four of the groups received daily intraperitoneal injections of 10 mg/kg of ATRA on days 1 through 5. The following formulations were administered as intraperitoneal injections on days 1, 5, and 9 (in 50 μL): 1) saline, 2) free DOX (3 mg/kg), 3) L-DOX (5 mg/kg), 4) f-L-DOX (5 mg/kg), 5) saline+ATRA, 6) free DOX+ATRA, 7) L-DOX+ATRA, and 8) f-L-DOX+ATRA. The body weight and survival of the animals were monitored daily during the course of the study.

Compound: CN1c2c(nc(N)[nH]c2=O)NC[C@@H]1CNc1ccc(C(=O)N[C@@H](CCC(=O)O)C(=O)O)cc1 [6S-5MeTHF, 6S-5-methyltetrahydrofolate]
- inhibition of f-L-calcein uptake (KG-1 cells [1]): did not significantly inhibit
- affinity of FR-β lower than for folic acid (FR-β): ~35 ×

Compound: CC1=C(/C=C/C(C)=C/C=C/C(C)=C/C(=O)O)C(C)(C)CCC1 [ATRA, all-trans retinoic acid]
- FR-β expression (FR-β expression [2]): increased
- Complete remission [3]: 72-95%
- survival (KG-1 ascites tumor; ATRA treatment in the absence of f-L-DOX or L-DOX): did not enhance survival
- FR-β expression (FR-β expression [4]; KG-1 cells, flow cytometry, 5-day exposure to ATRA (1 μM)): significant increase
- FR-β expression elevated (FR-β expression [4]; KG-1 myeloid leukemia cells, dose-dependent, reversible): up to 20 fold

Compound: COc1cccc2c1C(=O)c1c(O)c3c(c(O)c1C2=O)C[C@@](O)(C(=O)CO)C[C@@H]3O[C@H]1C[C@H](N)[C@H](O)[C@H](C)O1 [Free DOX, doxorubicin]
- IC50 (KG-1 cells [5]; KG-1, FR-β (+), no ATRA, folate-free media): 650 nM
- IC50 (KG-1 cells [5]; KG-1, FR-β (+), pre-exposure to ATRA, folate-free media): 630 nM
- IC50 (KG-1 cells [5]; KG-1, no ATRA, media containing 1 mM folic acid): 670 nM
- IC50 (KG-1 cells [5]; KG-1, pre-exposure to ATRA, media containing 1 mM folic acid): 680 nM
- IC50 (KG-1a cells; FR (−), no ATRA, folate-free media): 610 nM
- IC50 (KG-1a cells; FR (−), pre-exposure to ATRA, folate-free media): 590 nM
- IC50 (KG-1a cells; no ATRA, media containing 1 mM folic acid): 630 nM
- IC50 (KG-1a cells; pre-exposure to ATRA, media containing 1 mM folic acid): 620 nM
- IC50 (L1210JF cells; FR-α (+), folate-free media): 860 nM
- IC50 (L1210JF cells; media containing 1 mM folic acid): 870 nM
- IC50 (L1210 cells; L1210, FR (−), no ATRA, folate-free media): 910 nM
- IC50 (L1210 cells; L1210, no ATRA, media containing 1 mM folic acid): 930 nM
- median survival time (L1210JF ascites tumor): 28.5 days
- dose-limiting toxicity (KG-1 ascites tumor; mice, results not shown): > 3 mg/kg

Compound: CS(=O)(=O)O.Cc1ccc(NC(=O)c2ccc(CN3CCN(C)CC3)cc2)cc1Nc1nccc(-c2cccnc2)n1 [Gleevec™]
- effective against CMLs (CMLs): 90%

Compound: Nc1nc2ncc(CNc3ccc(C(=O)N[C@@H](CCC(=O)O)C(=O)O)cc3)nc2c(=O)[nH]1 [folic acid]
- [3H] folic acid bound (FR-β (+) AML cells): 0.72±0.13 pmoles per 10^6 cells
